Measurements: patent US20220153704A1 (priority 2019, published 2022)

Assay: DVS characterization of hygroscopicity and stability under different humidity
Format: physicochemical
Conditions: 25° C.
Procedure: The dynamic vapor sorption (DVS) graph was collected on DVS Intrinsic of SMS (Surface Measurement Systems). The relative humidity at 25° C. was corrected by the deliquescent point of LiCl, Mg(NO3)2 and KCl.
In order to evaluate the hygroscopicity and stability of anhydrous crystalline form E under different humidity conditions, DVS and XRPD tests were performed on crystalline form E samples at a constant temperature of 25° C.

SMILES: CCN1C[C@]2(COC)CC[C@H](OC)[C@]34C5C[C@]6(O)[C@@H](OC)C[C@@](OC(C)=O)(C5[C@H]6OC(=O)c5ccc(OC)cc5)[C@H](C13)[C@H](OC)[C@H]24 (stereo partly drawn) [crystalline form E, (1α,6α,14α,16β)tetrahydro-8,13,14-triol-20-ethyl-1,6,16-trimethoxy-4-methoxymethyl-8-acetoxy-14-(4′-p-methoxybenzyl)-aconitane]
- crystalline form before and after the DVS test (XRPD): did not change
- water adsorbed (DVS) (humidity 80% RH): 0.12%
- hygroscopicity (DVS, up to 80% RH): no hygroscopicity
